In data set [1] the target is T1, C-C motif chemokine 2 (Homo sapiens, UniProt P13500). The experiment in a line: Inhibition of MCP-1 in LPS-stimulated human PBMC cells pretreated with compound for 30 mins followed by LPS-stimulation and measured after 10 mins by microplate analysis. The format is cell-based.
In data set [2] the target is T1, C-C motif chemokine 2. Put plainly: Inhibition of MCP-1 in LPS-stimulated human whole blood pretreated with compound for 30 mins followed by LPS-stimulation and measured after 10 mins by microplate analysis. The format is tissue-based.
Data set [3] relates to HL-60. Put plainly: Antiproliferative activity against human HL-60 cells assessed as inhibition of cell growth incubated for 72 hrs by cell-titer glo assay. Particulars: HL-60, 72 h. The format is functional, cell-based.
Data set [4] can be described thus: Antiproliferative activity against human NMC 11060 cell assessed as inhibition of cell growth incubated for 72 hrs by cell-titer glo assay. Particulars: NMC 11060, 72 h. The format is functional, cell-based.
Data set [5] has as its target T2, Bromodomain-containing protein 4 (Homo sapiens, UniProt O60885). Put plainly: Inhibition of halo-tagged BRD4 (unknown origin) expressed in HEK293 cells incubated for 4 hrs by biosensor assay. The data set is classed as cell-based.
Data set [6] addresses T2, Bromodomain-containing protein 4. Put plainly: Inhibition of histone binding to BRD4 (unknown origin) expressed in HEK293 cells using histone H3.3 as substrate incubated for 18 to 24 hrs by nano-BRET analysis. The data set is classed as cell-based. On the technique in general: In BRET a luciferase serves as donor, and the signal depends on an acceptor being close.
For data set [7] the target is unchanged. Put plainly: Inhibition of BRD4 BD1 (unknown origin) by TR-FRET assay. Background: In TR-FRET formats the signal depends on donor and acceptor labels being close together.
The target is the same in data set [8]. The experiment in a line: Inhibition of BRD4 BD2 (unknown origin) by TR-FRET assay.
The nature of data set [9]: Lipophilicity, logD of compound at pH 7.4 by HPLC analysis. The data set is classed as physicochemical. The note with it: buffer.
Data set [10] can be described thus: Solubility of compound in simulated lung fluid at pH 6.9. The format is physicochemical.
The subject of data set [11] is MV4-11. The experiment in a line: Antiproliferative activity against human MV4-11 cells assessed as inhibition of cell growth incubated for 72 hrs by cell-titer glo assay. The data set is classed as functional, cell-based. Particulars: MV4-11, 72 h.

Results on 16 compounds are retold here after ChEMBL document CHEMBL5365519, “Design and Characterization of 1,3-Dihydro-2H-benzo[d]azepin-2-ones as Rule-of-5 Compliant Bivalent BET Inhibitors” (ACS Med Chem Lett, 2023).

Values after ≈ are worked out from the molar mass of the structure shown.

T1 sequence (P13500 whole entry): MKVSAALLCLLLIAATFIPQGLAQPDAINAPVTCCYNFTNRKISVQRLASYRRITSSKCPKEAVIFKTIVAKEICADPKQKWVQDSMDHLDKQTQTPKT

On to `Cc1sc2c(c1C)C(c1ccc(Cl)cc1)=N[C@@H](CC(=O)OC(C)(C)C)c1nnc(C)n1-2`, for which the IC50 in data set [1] was 6.31 nM; in data set [2] it was 631 nM.
As to `COc1cc2c(cc1-c1c(C)noc1C)ncc1[nH]c(=O)n([C@H](C)c3ccccn3)c12`, the 50% inhibitory concentration (IC50) in data set [1] is 39.8 nM; in data set [3], 126 nM; in [2], 200 nM; in data set [4], 631 nM.
With `COCC(COC)n1c(-c2cc(C)c(=O)n(C)c2)nc2cc(N3CCOCC3)ccc21`, the IC50 in data set [1] is 7.94 nM; in [2], 25.1 nM.
With `C[C@@H]1C(=O)N(C)CCN1CCOc1ccc(C2CCN(c3ccc4nncn4n3)CC2)cc1`, the EC50 in data set [5] is 1000 nM. Also, the IC50 in data set [1] was 200 nM; in data set [6], 398 nM; in data set [7] it was 25100 nM; in data set [2] it was 2000 nM; in data set [8] it was 39800 nM.
For `COc1cc2c(cc1OC)[C@@H](C)C(=O)N(C)C=C2`, the results for the IC50 in data set [1] and in data set [2] were 50.1 nM and 1000 nM, respectively.
`C[C@H]1C(=O)N(C)C=Cc2cc(OCCCCCOc3ccc4c(c3)C=CN(C)C(=O)[C@@H]4C)ccc21` had an EC50 in data set [5] of 7.94 nM. For the same compound, the IC50 in [1] is under 2 nM; in [6], 0.631 nM; in data set [7] it was 39.8 nM; in [2] it was 12.6 nM; in data set [8], 20 nM. In addition, in [9], the log distribution coefficient (logD) turned out to be 7.4. This compound had a solubility in data set [10] of under 1 µg/mL.
On to `C[C@H]1C(=O)N(C)C=Cc2cc(OCCCCCCCOc3ccc4c(c3)C=CN(C)C(=O)[C@@H]4C)ccc21`, for which the midpoint of the response in data set [5], the EC50, lay at 3.98 nM. Further, the IC50 is under 2 nM in data set [1]; 1 nM in data set [6]; 79.4 nM in [7]; 79.4 nM in data set [2]; 39.8 nM in data set [8]. The same compound registered a logD in data set [9] of 8.5.
`CC1C(=O)N(C)C=Cc2ccc(OCCCCCCOc3ccc4c(c3)C(C)C(=O)N(C)C=C4)cc21` (configuration not stated) showed an EC50 in data set [5] of 1000 nM. For the same compound, the IC50 in data set [6] is over 1000 nM; in data set [7], 3160 nM; in data set [2], 3980 nM; in data set [8] it was at least 1580 nM.
With `C[C@H]1C(=O)N(C)C=Cc2cc(OCCOc3ccc4c(c3)C=CN(C)C(=O)[C@@H]4C)ccc21`, it took 1.26 nM to reach a half-maximal effect in data set [5] (EC50). Further, the IC50 in [1] was 0.251 nM; in data set [6], 0.631 nM; in data set [7], 63.1 nM; in data set [2], 126 nM; in data set [8], 31.6 nM. The logD in [9] was determined as 5.8.
In turn, `C[C@H]1C(=O)N(C)C=Cc2cc(OCCCCOc3ccc4c(c3)C=CN(C)C(=O)[C@@H]4C)ccc21` had a concentration giving a half-maximal response (EC50) in data set [5] of 1.58 nM. The IC50 in data set [1] was 0.0398 nM; in data set [6] it was 0.316 nM; in [7] it was 3.16 nM; in data set [3], 0.398 nM; in data set [2], 5.01 nM; in [4] it was 0.794 nM. For the same compound, the IC50 in data set [8] was 6.31 nM; in data set [11], 0.501 nM. The compound further came in with a pH-dependent lipophilicity (logD) in data set [9] of 7.1. Besides, the concentration in solution in data set [10] (solubility) was 2 µg/mL (≈ 4.34 µM).
Regarding `C[C@H]1C(=O)N(C)C=Cc2cc(OCCCOc3ccc4c(c3)C=CN(C)C(=O)[C@@H]4C)ccc21`, in data set [5], the EC50 was 2.51 nM. For the same compound, the IC50 was under 2 nM in data set [1]; 15.8 nM in data set [6]; 100 nM in [7]; 50.1 nM in data set [2]; 39.8 nM in data set [8]. For the same compound, the pH-dependent lipophilicity (logD) in data set [9] was 6.7. The same compound returned a solubility in data set [10] of under 1 µg/mL.
In the case of `CC1C(=O)N(C)C=Cc2ccc(OCCCCCOc3ccc4c(c3)C(C)C(=O)N(C)C=C4)cc21` (configuration not stated), the IC50 in data set [7] is 631 nM; in data set [2], 15800 nM; in data set [8] it was 3980 nM. Further, the logD in [9] amounted to 7.5.
The compound `C[C@H]1C(=O)N(C)C=Cc2cc(CN3CCN(Cc4ccc5c(c4)C=CN(C)C(=O)[C@@H]5C)CC3)ccc21` had an EC50 in [5] of 2 nM. Further, the 50% inhibitory concentration (IC50) in data set [1] is under 0.2 nM; in data set [6], 0.501 nM; in data set [7], 15.8 nM; in data set [2], 6.31 nM; in data set [8], 25.1 nM. The same compound displayed a logD in data set [9] of 5.43. This compound had a solubility in data set [10] of 465 µg/mL (≈ 959 µM).
Turning to `COc1nnc2ccc(N3CCC(c4ccc(OCCN5CCN(C)C(=O)[C@H]5C)cc4)CC3)nn12` [AZD-5153], in data set [5], the response was half-maximal at 15.8 nM (EC50). The IC50 in data set [1] is 3.16 nM; in data set [6], 15.8 nM; in data set [7] it was 398 nM; in data set [2], 15.8 nM; in [8], 3160 nM.
For the compound `CC(=O)Nc1c(F)cc(C(=O)N[C@H]2CC[C@H](O)CC2)cc1O[C@@H](C)c1ccccc1` [GSK046], the pIC50 in data set [1] (pbmc) is 7.5.
Consider `COCc1nc2cnc3cc(-c4c(C)noc4C)c(OC[C@H]4CCNC4)cc3c2n1[C@H](C)c1ccccc1` [GSK778], for which the IC50 in [2] is 158 nM.

The term IC50 denotes the point on the concentration scale where inhibition reaches its midpoint. The EC50 is the concentration needed to bring the measured effect to its halfway point. Lower therefore signals greater potency. The term logD denotes lipophilicity at a set pH, counting ionised and neutral species. A high value points to a more lipophilic compound. For orientation: solubility means the dissolved amount per volume that the medium holds. A low value points to little dissolved substance. In general, pIC50 refers to −log10 of the IC50, conventionally taken in molar units.
